This note sets out measurements from patent publication US12630537B2, “Pyridazinone and methods of use thereof” (ALIGOS THERAPEUTICS, INC., priority 2020, dated 2026).

Structures are written as SMILES. Read-outs that look alike come from different tables or passages of the source. A value given as a limit tells only on which side of the number the result lay.

One data set concerns the target T1, THR alpha (Homo sapiens, UniProt P10827).
T1 construct: expressed in transfected cells; host or cells: HEK293T (ATCC CRL-3216)
T1 sequence (P10827 1-410 isoform P10827-2): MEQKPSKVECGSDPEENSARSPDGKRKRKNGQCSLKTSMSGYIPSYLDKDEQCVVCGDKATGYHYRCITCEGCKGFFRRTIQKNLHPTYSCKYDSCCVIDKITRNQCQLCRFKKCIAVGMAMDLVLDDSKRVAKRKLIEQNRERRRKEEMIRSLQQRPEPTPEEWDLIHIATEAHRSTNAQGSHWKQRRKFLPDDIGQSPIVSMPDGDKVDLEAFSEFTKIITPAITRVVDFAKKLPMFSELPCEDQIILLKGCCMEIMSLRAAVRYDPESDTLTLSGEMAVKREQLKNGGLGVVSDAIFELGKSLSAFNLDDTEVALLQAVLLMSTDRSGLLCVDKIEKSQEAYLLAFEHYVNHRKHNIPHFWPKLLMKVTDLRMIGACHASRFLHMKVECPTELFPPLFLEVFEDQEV
T1 sequence (P19793 1-462 partner): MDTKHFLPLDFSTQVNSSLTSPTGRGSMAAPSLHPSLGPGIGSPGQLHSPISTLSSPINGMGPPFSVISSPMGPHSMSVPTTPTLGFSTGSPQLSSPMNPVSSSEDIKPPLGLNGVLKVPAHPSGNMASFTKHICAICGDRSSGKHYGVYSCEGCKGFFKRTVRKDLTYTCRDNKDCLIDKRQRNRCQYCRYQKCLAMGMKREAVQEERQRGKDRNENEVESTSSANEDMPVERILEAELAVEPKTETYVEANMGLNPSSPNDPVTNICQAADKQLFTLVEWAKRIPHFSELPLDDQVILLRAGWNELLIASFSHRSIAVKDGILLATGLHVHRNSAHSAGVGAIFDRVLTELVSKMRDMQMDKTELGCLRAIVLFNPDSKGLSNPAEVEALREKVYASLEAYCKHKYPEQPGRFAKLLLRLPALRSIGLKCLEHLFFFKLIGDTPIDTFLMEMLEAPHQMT
Briefly: HEK293T THRalpha/RXR luciferase reporter assay. Type of data set: cell-based. The settings on record: HEK293T TRE-luciferase reporter, 18-24 h; read-out: EC50 THR-α (HEK 293 Activity). Here is the method: (§1) The purpose of this assay is to evaluate the effect of compounds on the thyroid hormone nuclear receptor pathway in HEK293T cells. To this end, HEK293T cells are transiently transfected with a luciferase reporter under the control of the thyroid response element (TRE), an RXR expression plasmid and either a THR alpha or THR beta expression plasmid. Transfected cells are stimulated with test compounds for 18-24 hours before activation of the thyroid hormone pathway is measured via a luciferase read-out.
(§2) Procedure. 24 hours prior to transfection, approximately […] HEK293T (ATCC, catalog #CRL-3216) were plated in one well of a 6-well-plate using DMEM (Hyclone, catalog #SH30022) supplemented with 10% FBS (Gibco, catalog #16000-044) and incubated overnight. Transfection complexes were prepared by mixing 12 μL of Lipofectamine 2000 (Invitrogen catalog #11668019) with 4 μg of a plasmid mixture at a ratio of 1:1:4 (TRalpha or TRbeta:RXR:TRE-Luc) in 200 μL OptiMem (Invitrogen catalog #11058-021) and added to the cells. […] Approximately 18-24 h after compound addition, 384 well plates were allowed to adjust to rt, 30 μL One-Glo (Promega catalog #E6120) is added to each well and luminescence was measured on a Perkin Elmer Enspire plate reader. Percent agonism was calculated using the following equation: 100×(sample−negative control)/(positive control−negative control).

The target in a further data set is T2, THR beta (Homo sapiens, UniProt P10828).
T2 construct: expressed in transfected cells; host or cells: HEK293T (ATCC CRL-3216)
T2 sequence (P10828 1-461): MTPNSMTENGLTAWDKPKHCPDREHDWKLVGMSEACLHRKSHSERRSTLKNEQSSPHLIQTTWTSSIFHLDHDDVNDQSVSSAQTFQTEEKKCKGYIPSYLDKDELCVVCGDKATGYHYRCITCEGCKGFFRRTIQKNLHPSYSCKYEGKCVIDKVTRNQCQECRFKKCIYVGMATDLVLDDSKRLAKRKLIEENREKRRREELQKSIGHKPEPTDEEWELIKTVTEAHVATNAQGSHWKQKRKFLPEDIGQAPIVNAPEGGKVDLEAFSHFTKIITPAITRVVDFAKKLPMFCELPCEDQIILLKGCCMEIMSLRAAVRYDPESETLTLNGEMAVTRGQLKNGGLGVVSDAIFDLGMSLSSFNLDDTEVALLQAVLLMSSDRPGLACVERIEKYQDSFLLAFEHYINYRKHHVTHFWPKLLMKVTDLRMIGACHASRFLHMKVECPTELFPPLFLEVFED
T2 sequence (P19793 1-462 partner): T1 sequence (P19793 1-462 partner)
The experiment in a line: HEK293T THRbeta/RXR luciferase reporter assay. Format: cell-based. Here is the method: as §1, §2

Data set [1] is described as follows: Pharmacokinetics in rat (i.v.). Type of data set: in vivo, Male Sprague-Dawley rats. The conditions noted are these: for concentration at 12 h / clearance / half-life: male, Sprague-Dawley, iv 1 mg/kg; for clearance / half-life: 60% PEG400 in water. On the procedure:
Male Sprague-Dawley rats were administered the study compound as an i.v. bolus dose of 1 mg/kg in a 0.500 mg/mL solution in 60% PEG400 in water.

A short description of data set [2]: Microsomal stability assay, mouse. Format: in vitro ADME. The conditions noted are these: for Liver Microsomes % Remaining: 1 μM, time point not given; for half-life at 1 μM: liver microsomes, pH 7.4, 0.5 mg/mL microsomes, read-out: Liver Microsomes T1/2. Here is the method: (§3) The assay was carried out in 96-well microtiter plates. Test compounds, at a final concentration of 1 μM was incubated at 37° C. with 0.5 mg/mL liver microsomes, and +/−1 mM NADPH in 100 mM potassium phosphate, pH 7.4 buffer with 3.3 mM MgCl2. […] At each of the time points (0, 15, 30 and 60 min), incubation was stopped by adding 150 μL of the quenching solutions (100% acetonitrile, 0.1% formic acid) and subsequently the mixtures were vortexed vigorously for 20 min and centrifuged at 4,000 RPM at 4° C. The supernatants (80 μL) were transferred to a clean 96-well plate and analyzed by LC/MS/MS. Verapamil at 1 μM with a final 0.1% DMSO was included as a positive control to verify assay performance.

Data set [3] can be described thus: Microsomal stability assay, rat. The settings on record: for Liver Microsomes % Remaining: 1 μM, time point not given; for half-life at 1 μM: liver microsomes, pH 7.4, 0.5 mg/mL microsomes, read-out: Liver Microsomes T1/2. Type of data set: in vitro ADME. Here is the method:
as §3

The nature of data set [4]: Microsomal stability assay, human. Format: in vitro ADME. The settings on record: for Liver Microsomes % Remaining: 1 μM, time point not given; for half-life at 1 μM: liver microsomes, pH 7.4, 0.5 mg/mL microsomes, read-out: Liver Microsomes T1/2. On the procedure: as §3
Data set [5] can be described thus: Hepatocyte stability assay, mouse. Type of data set: in vitro ADME. The settings on record: for Hepatocytes % Remaining: 1 μM, time point not given; for half-life at 1 μM: cryopreserved hepatocytes, 0.5 million cells/mL, read-out: Hepatocytes T1/2. Here is the method:
(§4) Cryopreserved hepatocytes were taken from the liquid nitrogen tank and thawed quickly in a 37° C. water bath. As soon as the cells pulled away from the vial wall, they were decanted into 48 mL of warm thawing (HT) medium. Cells were centrifuged for 5 minutes at 420 RPM (50 g). After removing the supernatant, the pellets were re-suspended in 4 mL of warm Dulbecco's Modified Eagle Medium (DMEM). Cell density was counted by a hemocytometer.
(§5) The assay was carried out in 96-well microtiter plates. The study compound was incubated at 1 μM with 0.5 million cells/mL hepatocytes in DMEM for 0, 60, 120, and 180 minutes at 37° C. The volume of the incubation mixture was 37 μL with a final DMSO content of 0.1%. At each time point, the incubation was stopped by the addition of 150 μL quenching solution (100% acetonitrile, 0.1% formic acid containing the internal standard bucetin at 15 nM). Subsequently, the mixtures were vortexed for 20 minutes and centrifuged at 4,000 RPM at 10° C. An aliquot of 80 μL of the supernatant was transferred to a clean 96-well plate and analyzed by LC/MS/MS. Midazolam at 1 μM with a final DMSO content of 0.1% was included as a positive control to verify the assay performance.

Data set [6] in a line: Hepatocyte stability assay, rat. The settings on record: for Hepatocytes % Remaining: 1 μM, time point not given; for half-life at 1 μM: cryopreserved hepatocytes, 0.5 million cells/mL, read-out: Hepatocytes T1/2. Format: in vitro ADME. Here is the method:
as §4, §5

Data set [7] in a line: Hepatocyte stability assay, human. Format: in vitro ADME. The conditions noted are these: for Hepatocytes % Remaining: 1 μM, time point not given; for half-life at 1 μM: cryopreserved hepatocytes, 0.5 million cells/mL, read-out: Hepatocytes T1/2. Here is the method: as §4, §5
Data set [8] is described as follows: Pharmacokinetic profile in mouse. Format: in vivo.
The test system of data set [9] is WT C57BL/6 mice fed a high fat diet. The experiment in a line: Cholesterol reduction in a murine efficacy model. Format: in vivo, mouse. The settings on record: 0.025 mg/kg BID p.o., 7 days, high fat diet C57BL/6 mice. Here is the method:
Model description. WT C57BL/6 mice were fed a high fat diet (D12109C) for 2 weeks. Prior to the administration of compound 1a, blood was drawn to measure the baseline lipid levels. Compound 1a was dosed daily (p.o.) for 7 days. Blood was drawn to measure lipid levels.

Data set [10] deals with T3, human thyroid receptor beta ligand-binding domain (THR-β) (Homo sapiens, UniProt P10828).
T3 sequence (P10828 217-461 limits assumed): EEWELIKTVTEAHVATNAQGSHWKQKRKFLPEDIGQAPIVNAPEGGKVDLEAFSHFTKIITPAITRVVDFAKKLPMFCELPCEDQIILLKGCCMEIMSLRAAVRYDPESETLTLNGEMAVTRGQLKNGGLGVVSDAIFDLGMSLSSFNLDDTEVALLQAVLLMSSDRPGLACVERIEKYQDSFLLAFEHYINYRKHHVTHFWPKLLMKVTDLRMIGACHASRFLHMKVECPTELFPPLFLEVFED
Briefly: TR-FRET thyroid receptor beta coactivator assay (THR biochemical assay).
Excerpt: (§6) The TR-FRET thyroid receptor beta coactivator assay was used with slight, optimized modifications of the manufacturer's protocol (Invitrogen). The assay uses a terbium-labeled anti-GST antibody, a glutathione-S-transferase (GST) tagged human thyroid receptor, beta or alpha, ligand-binding domain (LBD), and a fluorescein labeled SRC2-2 coactivator peptide. […] The energy transfer was detected as an increase in the fluorescence emission of the fluorescein acceptor, and a decrease in the fluorescence emission of the terbium donor. The assay was performed in a 384-well black plate in a final volume of 20 μL. Serial dilution of various test agonists was performed in DMSO (1% final DMSO concentration) and added to the test plate. Thyroid receptor beta LBD was added to the plate at a final concentration of 1 nM, followed by the mixture of the fluorescein labeled SRC2-2 coactivator peptide, and the terbium-labeled anti-GST antibody at final concentrations of 200 nM and 2 nM respectively. The assay was incubated for 1 hr at rt protected from light.

For data set [11], the target named is human thyroid receptor alpha ligand-binding domain (THR-α) (Homo sapiens, UniProt P10827). The experiment in a line: TR-FRET thyroid receptor coactivator assay (THR biochemical assay), alpha.
Excerpt: as §6

`CC(c1cc(Oc2c(Cl)cc(-n3nc(N)c(=O)[nH]c3=O)cc2Cl)n[nH]c1=O)C1CC1` (single isomer, unassigned) [Compound 1a]: the EC50 at THR alpha was 201 nM; at THR beta (HEK293T TRE-luciferase reporter, 18-24 h, read-out: EC50 THR-β (HEK 293 Activity)), 38 nM; in data set [10], 26 nM; in data set [11], 252 nM. Further, the “THR-β Selectivity (HEK 293 Activity)” value on THR beta (THR-β over THR-α, HEK293T reporter) was 5. The “Liver/Heart Concentration” value in [1] (at 12 h) stood at 62 at 12 h; in data set [8] (at 24 h), 27.6 at 24 h. The “in vivo half-life compared to compound 2” value in [1] (comparison in words) is listed as “unexpectedly longer”. The concentration at 12 h in data set [1] (liver, read-out: Liver conc. 12 h) turned out to be 14400 ng/g; in data set [1] (plasma, read-out: Plasma conc. 12 h), 336 ng/mL. Further, the clearance came to 2.14 mL/min/kg in [1] (plasma) and 6.3 mL/min/kg in data set [8] (in vivo). The results for the half-life in data set [1] (plasma) and in [8] (in vivo) were 5.25 h and 2.87 h, respectively. For the same molecule, the “Liver Microsomes % Remaining” value in data set [2] is listed as “(100) %”; in data set [3], “(98) %”; in data set [4], “(107) %”. The half-life at 1 μM in data set [2] is over 1 h; in [3], over 1 h; in [4], over 1 h; in [5], over 6 h; in data set [6], over 6 h; in data set [7], over 6 h. Further, the “Hepatocytes % Remaining” value in data set [5] is reported as “(88) %”; in [6], “(107) %”; in data set [7], “(100) %”. The same molecule displayed a reduction in cholesterol in [9] of 24.5%. Moreover, the “THR-β Selectivity (Biochemical Activity)” value in [10] (THR-β over THR-α, TR-FRET assay) is listed as 9.5. The “in vitro THR-β selectivity compared to its enantiomer, compound 1b” value in data set [10] (biochemical assay, comparison in words) is reported as “higher”.
In data set [1] (plasma), `C#Cc1nn(-c2cc(Cl)c(Oc3cc(C(C)C)c(=O)[nH]n3)c(Cl)c2)c(=O)[nH]c1=O` [Compound 2, reference compound] displayed a clearance of 9.14 mL/min/kg. Besides, in data set [1] (plasma), the half-life was 1.31 h. Also, the “Liver Microsomes % Remaining” value is “(94) %” in [2], “(85) %” in data set [3] and “(84) %” in data set [4]. In addition, the half-life at 1 μM is over 1 h in [2]; over 1 h in data set [3]; over 1 h in data set [4]; 1.18 h in data set [5]; 1.43 h in [6]; 1.72 h in data set [7]. Also, the “Hepatocytes % Remaining” value in data set [5] is given as “(18) %”; in [6], “(24) %”; in data set [7] it was “(31) %”.
